Experiments:
P70S6K (T412E mutant) = P70S6K (T412E mutant) (Homo sapiens (Human), UniProt P23443, T412E); assay: P70S6K enzyme assay; format: biochemical; settings: 24 μM ATP
Method: P70S6K inhibitor compounds were diluted and plated in 96 well plates. A reaction mixture including the following components was then added to the compound plate to initiate the enzyme reaction; P70S6K (3 nM, T412E mutant, Millipore) was mixed with 24 μM ATP in an assay buffer containing 100 mM Hepes (pH 7.5), 5 mM MgCl2, 1 mM DTT, 0.015% Brij and 1 μM of the substrate peptide FITC-AHA-AKRRRLSSLRA-OH (derived from the S6 ribosomal protein sequence, FITC=fluorescein isothiocyanate, AHA=6-aminohexanoic acid). The reaction was incubated for 90 min at 25° C., before the addition of 10 mM EDTA to stop the reaction. The proportion of substrate and product (phosphorylated) peptide was analysed on a Caliper Life Sciences Lab Chip 3000, using a pressure of −1.4 psi, and upstream and downstream voltages of −3000 and −700 respectively. Product peaks were resolved before substrate peaks on the resulting chromatograms.

His-AKT (Full Length) = His-AKT (Full Length) (Homo sapiens (Human), UniProt P31749); assay: AKT enzyme assay; format: biochemical; settings: 160 uM ATP
Method: A TTP Mosquito liquid handling instrument was used to place 125 nl of the appropriate concentration of inhibitor in 100% DMSO (for a dose response curve calculation) into each well of a 384-well plate. To this reaction components were added to a final volume of 12.5 μl: • 0.1 ng/μl His-AKT (Full Length), (Invitrogen, Part # P2999, Lot #641228C). • 160 uM ATP (Fluka, 02055) • 1 mM DTT (Sigma, D0632) • 1 mM MgCl2 (Sigma, M1028) • 1 μM substrate peptide (sequence FITC-AHA-GRPRTSSFAEG-NH2), synthesized by Tufts Peptide Synthesis service. • 100 mM HEPES pH 7.5 (Calbiochem, 391338) • 0.015% Brij-35 (Sigma, B4184)
The reaction was incubated for 90 min at 25 C., and then stopped by the addition of 70 μl of Stop buffer (100 mM HEPES pH 7.5, 0.015% Brij-35, 10 mM EDTA (Sigma, E7889)).
The plate was read on a Caliper LC 3000 in an Off-Chip mobility shift assay format, using the following parameters for a 12-sipper chip: screening pressure −2.3 psi, upstream voltage −500, and downstream voltage −3000. These conditions caused unphosphorylated substrate and phosphorylated product peptide to resolve as separate peaks allowing direct measurement of percentage of conversion of substrate to product.
The percent conversion was plotted against concentration of inhibitor to produce a sigmoidal dose response curve, from which an IC50 was calculated.

Chain of His-AKT (Full Length) (P31749 whole entry): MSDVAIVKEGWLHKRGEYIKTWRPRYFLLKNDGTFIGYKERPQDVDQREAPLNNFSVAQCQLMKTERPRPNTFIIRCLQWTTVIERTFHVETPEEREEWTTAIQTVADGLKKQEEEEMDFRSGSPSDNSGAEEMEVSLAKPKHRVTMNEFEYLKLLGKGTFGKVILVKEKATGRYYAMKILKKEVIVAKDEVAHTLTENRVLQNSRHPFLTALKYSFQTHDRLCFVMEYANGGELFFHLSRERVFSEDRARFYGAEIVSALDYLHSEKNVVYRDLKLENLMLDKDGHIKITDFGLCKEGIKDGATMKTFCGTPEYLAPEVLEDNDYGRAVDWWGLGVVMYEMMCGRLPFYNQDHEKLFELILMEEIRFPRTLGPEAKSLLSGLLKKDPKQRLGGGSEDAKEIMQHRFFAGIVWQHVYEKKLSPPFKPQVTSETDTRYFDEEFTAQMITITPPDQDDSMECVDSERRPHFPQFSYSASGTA
Chain of P70S6K (T412E mutant) (P23443 whole entry T412E): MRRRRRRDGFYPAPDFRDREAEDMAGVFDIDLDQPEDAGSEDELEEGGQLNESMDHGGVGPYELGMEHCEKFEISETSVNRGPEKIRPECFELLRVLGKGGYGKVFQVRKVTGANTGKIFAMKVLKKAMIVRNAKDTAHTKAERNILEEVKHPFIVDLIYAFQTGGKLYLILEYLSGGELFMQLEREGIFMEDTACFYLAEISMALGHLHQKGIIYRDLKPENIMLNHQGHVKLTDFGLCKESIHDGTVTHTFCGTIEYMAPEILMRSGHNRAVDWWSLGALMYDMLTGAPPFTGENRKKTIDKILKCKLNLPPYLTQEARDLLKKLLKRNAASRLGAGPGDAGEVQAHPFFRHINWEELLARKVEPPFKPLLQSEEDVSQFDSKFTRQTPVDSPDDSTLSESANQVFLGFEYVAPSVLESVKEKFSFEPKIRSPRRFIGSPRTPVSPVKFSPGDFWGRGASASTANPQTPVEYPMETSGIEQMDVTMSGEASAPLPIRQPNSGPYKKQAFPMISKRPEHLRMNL

Row | Structure (SMILES) | IC50 (P70S6K (T412E mutant)) [nM] | IC50 (His-AKT (Full Length)) [nM]
1 | CNCCn1cc(-c2ccc(F)c(C)c2)nc1[C@@H]1CCN(c2ncnc(N)c2C(C)C)C[C@@H]1F (racemic) [Compound 38, 6-{cis-3-Fluoro-4-[4-(4-fluoro-3-methyl-phenyl)-1-(2-methylamino-ethyl)-1H-imidazol-2-yl]-piperidin-1-yl}-5-isopropyl-pyrimidin-4-ylamine] | 1 to 10 | 1 to 10
2 | Cc1cc(-c2cn(CCN3CCC3)c([C@@H]3CCN(c4ncnc(N)c4OC(C)C)C[C@@H]3F)n2)ccc1F (racemic) [Compound 39, 6-{cis-4-[1-(2-Azetidin-1-yl-ethyl)-4-(4-fluoro-3-methyl-phenyl)-1H-imidazol-2-yl]-3-fluoro-piperidin-1-yl}-5-isopropoxy-pyrimidin-4-ylamine] | 1 to 10 | 1 to 10
3 | Cc1cc(-c2cn(CC3CNC3)c([C@@H]3CCN(c4ncnc(N)c4C(C)C)C[C@@H]3F)n2)ccc1F (racemic) [Compound 41, 6-{cis-4-[1-Azetidin-3-ylmethyl-4-(4-fluoro-3-methyl-phenyl)-1H-imidazol-2-yl]-3-fluoro-piperidin-1-yl}-5-isopropyl-pyrimidin-4-ylamine] | 1 to 10 | 1 to 10
4 | N#Cc1c[nH]c2ncnc(N3CC[C@@H](c4nc(-c5ccc(F)c(C(F)(F)F)c5)cn4CCN4CCC4)[C@@H](F)C3)c12 (racemic) [Compound 42] | 1 to 10 | 1 to 10
5 | N#Cc1c[nH]c2ncnc(N3CC[C@@H](c4nc(-c5ccnc(C(F)(F)F)c5)cn4CCN4CCC4)[C@@H](F)C3)c12 (racemic) [Compound 43] | 1 to 10 | 1 to 10
6 | Cc1cc(-c2cn(CCN3CCC3)c([C@@H]3CCN(c4ncnc(N)c4C(N)=O)C[C@@H]3F)n2)ccc1F (relative stereo) [Compound 19, 4-Amino-6-{cis-4-[1-(2-azetidin-1-yl-ethyl)-4-(4-fluoro-3-methyl-phenyl)-1H-imidazol-2-yl]-3-fluoro-piperidin-1-yl}-pyrimidine-5-carboxylic acid amide] | 1 to 10 | 1 to 10
7 | NC(=O)c1c(N)ncnc1N1CC[C@@H](c2nc(-c3ccc(F)c(C(F)(F)F)c3)cn2CCN2CCC2)[C@@H](F)C1 (single isomer, unassigned) [Compound 3] | 1 to 10 | 1 to 10
8 | NC(=O)c1c(N)ncnc1N1CC[C@H](c2nc(-c3ccc(F)c(C(F)(F)F)c3)cn2CCN2CCC2)[C@H](F)C1 (single isomer, unassigned) [Compound 4] | 1 to 10 | > 10
9 | CN(C)CCn1cc(-c2ccc(F)c(C(F)(F)F)c2)nc1[C@H]1CCN(c2ncnc(N)c2C(N)=O)C[C@H]1F (single isomer, unassigned) [Compound 20] | 1 to 10 | 1 to 10
10 | CN(C)CCn1cc(-c2ccc(F)c(C(F)(F)F)c2)nc1[C@@H]1CCN(c2ncnc(N)c2C(N)=O)C[C@@H]1F (single isomer, unassigned) [Compound 21] | 1 to 10 | > 10
11 | CCOc1c(N)ncnc1N1CC[C@@H](c2nc(-c3ccc(F)c(C(F)(F)F)c3)cn2CCN2CCC2)[C@@H](F)C1 (single isomer, unassigned) [Compound 22] | 1 to 10 | 1 to 10
12 | CCOc1c(N)ncnc1N1CC[C@H](c2nc(-c3ccc(F)c(C(F)(F)F)c3)cn2CCN2CCC2)[C@H](F)C1 (single isomer, unassigned) [Compound 23] | 1 to 10 | 1 to 10
13 | Cc1cc(-c2cn(CCN3CCC3)c([C@@H]3CCN(c4ncnc(N)c4C(N)=O)C[C@@H]3F)n2)ccc1F (single isomer, unassigned) [Compound 27] | 1 to 10 | 1 to 10
14 | Cc1cc(-c2cn(CCN3CCC3)c([C@H]3CCN(c4ncnc(N)c4C(N)=O)C[C@H]3F)n2)ccc1F (single isomer, unassigned) [Compound 28] | > 10 | > 10
15 | CN(C)CCn1cc(-c2ccc(F)c(C(F)(F)F)c2)nc1[C@@H]1CCN(c2ncnc(N)c2Cl)C[C@@H]1F (single isomer, unassigned) [Compound 29] | 1 to 10 | 1 to 10
16 | CN(C)CCn1cc(-c2ccc(F)c(C(F)(F)F)c2)nc1[C@H]1CCN(c2ncnc(N)c2Cl)C[C@H]1F (single isomer, unassigned) [Compound 30] | 1 to 10 | > 10
17 | CC(C)c1c(N)ncnc1N1CC[C@H](c2nc(-c3ccc(F)c(C(F)(F)F)c3)cn2CCN(C)C)[C@H](F)C1 (single isomer, unassigned) [Compound 31] | 1 to 10 | > 10
18 | CC(C)c1c(N)ncnc1N1CC[C@@H](c2nc(-c3ccc(F)c(C(F)(F)F)c3)cn2CCN(C)C)[C@@H](F)C1 (single isomer, unassigned) [Compound 32] | 1 to 10 | 1 to 10
19 | Cc1cc(-c2cn(CCN3CCC3)c([C@H]3CCN(c4ncnc(N)c4C(C)C)C[C@H]3F)n2)ccc1F (single isomer, unassigned) [Compound 34] | 1 to 10 | > 10
20 | Cc1cc(-c2cn(CCN3CCC3)c([C@@H]3CCN(c4ncnc(N)c4C(C)C)C[C@@H]3F)n2)ccc1F (single isomer, unassigned) [Compound 35] | 1 to 10 | 1 to 10
21 | N#Cc1c(N)ncnc1N1CC[C@@H](c2nc(-c3ccc(F)c(C(F)(F)F)c3)cn2CCN2CCC2)[C@@H](F)C1 (single isomer, unassigned) [Compound 40] | 1 to 10 | 1 to 10
22 | Cc1cc(-c2cn(CCN3CCC3)c(C3(O)CCN(c4ncnc(N)c4C#N)CC3)n2)ccc1F [Compound 44, 4-Amino-6-{4-[1-(2-azetidin-1-yl-ethyl)-4-(4-fluoro-3-methyl-phenyl)-1H-imidazol-2-yl]-4-hydroxy-piperidin-1-yl}-pyrimidine-5-carbonitrile] | 1 to 10 | 1 to 10
23 | Cc1cc(-c2cn(CCN3CCC3)c(C3(O)CCN(c4ncnc(N)c4C(C)C)CC3)n2)ccc1F [Compound 45, 1-(6-Amino-5-isopropyl-pyrimidin-4-yl)-4-[1-(2-azetidin-1-yl-ethyl)-4-(4-fluoro-3-methyl-phenyl)-1H-imidazol-2-yl]-piperidin-4-ol] | 1 to 10 | 1 to 10
24 | CCc1c(N)ncnc1N1CCC(O)(c2nc(-c3ccc(F)c(C)c3)cn2CCN2CCC2)CC1 [Compound 46, 1-(6-Amino-5-ethyl-pyrimidin-4-yl)-4-[1-(2-azetidin-1-yl-ethyl)-4-(4-fluoro-3-methyl-phenyl)-1H-imidazol-2-yl]-piperidin-4-ol] | 1 to 10 | 1 to 10
25 | Cc1cc(-c2cn(CCN3CCC3)c(C3(O)CCN(c4ncnc(N)c4Cl)CC3)n2)ccc1F [Compound 47, 1-(6-Amino-5-chloro-pyrimidin-4-yl)-4-[1-(2-azetidin-1-yl-ethyl)-4-(4-fluoro-3-methyl-phenyl)-1H-imidazol-2-yl]-piperidin-4-ol] | 1 to 10 | 1 to 10
26 | Cc1cc(-c2cn(CCN3CCC3)c(C3CCN(c4ncnc(N)c4C#N)CC3(F)F)n2)ccc1F (centres unmarked) [Compound 48, 4-Amino-6-{4-{1-(2-azetidin-1-yl-ethyl)-4-(4-fluoro-3-methyl-phenyl)-1H-imidazol-2-yl}-3,3-difluoro-piperidin-1-yl}-pyrimidine-5-carbonitrile] | 1 to 10 | 1 to 10
27 | Cc1cc(-c2cn(CCN3CCC3)c(C3CCN(c4ncnc(N)c4C(N)=O)CC3(F)F)n2)ccc1F (centres unmarked) [Compound 49, 4-Amino-6-{4-[1-(2-azetidin-1-yl-ethyl)-4-(4-fluoro-3-methyl-phenyl)-1H-imidazol-2-yl]-3,3-difluoro-piperidin-1-yl}-pyrimidine-5-carboxylic acid amide] | > 10 | > 10
28 | Cc1cc(-c2cn(CCN3CCC3)c(C3CCN(c4ncnc(N)c4C(C)C)CC3(F)F)n2)ccc1F (centres unmarked) [Compound 50, 6-{4-[1-(2-Azetidin-1-yl-ethyl)-4-(4-fluoro-3-methyl-phenyl)-1H-imidazol-2-yl]-3,3-difluoro-piperidin-1-yl}-5-isopropyl-pyrimidin-4-ylamine] | 1 to 10 | 1 to 10

Reference: patent publication US9867826B2, “Heterocycles as modulators of kinase activity” (Merck Patent GmbH, priority 2013, dated 2018)
